The Ki is a measure of affinity in units of concentration, obtained from inhibition or displacement. A low value points to tighter binding.

This is an account of results in patent publication US8003682B2, “Indole compounds, a process for their preparation and pharmaceutical compositions containing them” (Les Laboratories Servier, priority 2006, dated 2011).

One assay has as its target MT1 receptor (Homo sapiens, UniProt P48039). Kind of assay: Melatonin MT1 receptor binding study (2-[125I]-iodomelatonin competition). The following applies: 2-[125I]-iodomelatonin radioligand, triplicate. Here is the method: (§1) The MT1 or MT2 receptor binding experiments are carried out using 2-[^125I]-iodomelatonin as reference radioligand. The radioactivity retained is determined using a liquid scintillation counter.
(§2) Competitive binding experiments are then carried out in triplicate using the various test compounds. A range of different concentrations is tested for each compound. The results enable the binding affinities (Ki) of the compounds tested to be determined.

In a further assay the target is T1, MT2 receptor (Homo sapiens, UniProt P49286).
T1 sequence (P49286 1-362): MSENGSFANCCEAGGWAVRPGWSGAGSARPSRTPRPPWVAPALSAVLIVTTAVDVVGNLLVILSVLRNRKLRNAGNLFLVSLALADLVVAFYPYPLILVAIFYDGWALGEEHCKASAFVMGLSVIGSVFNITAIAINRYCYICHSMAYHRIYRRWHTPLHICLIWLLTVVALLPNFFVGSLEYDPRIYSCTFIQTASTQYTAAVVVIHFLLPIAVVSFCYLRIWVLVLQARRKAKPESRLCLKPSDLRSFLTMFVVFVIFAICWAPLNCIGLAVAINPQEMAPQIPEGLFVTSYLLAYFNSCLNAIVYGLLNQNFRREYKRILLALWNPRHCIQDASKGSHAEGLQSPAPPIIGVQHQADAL
In words: Melatonin MT2 receptor binding study (2-[125I]-iodomelatonin competition). The following applies: 2-[125I]-iodomelatonin radioligand, triplicate. Here is the method: as §1, §2

Sequence of MT1 receptor (P48039 whole entry): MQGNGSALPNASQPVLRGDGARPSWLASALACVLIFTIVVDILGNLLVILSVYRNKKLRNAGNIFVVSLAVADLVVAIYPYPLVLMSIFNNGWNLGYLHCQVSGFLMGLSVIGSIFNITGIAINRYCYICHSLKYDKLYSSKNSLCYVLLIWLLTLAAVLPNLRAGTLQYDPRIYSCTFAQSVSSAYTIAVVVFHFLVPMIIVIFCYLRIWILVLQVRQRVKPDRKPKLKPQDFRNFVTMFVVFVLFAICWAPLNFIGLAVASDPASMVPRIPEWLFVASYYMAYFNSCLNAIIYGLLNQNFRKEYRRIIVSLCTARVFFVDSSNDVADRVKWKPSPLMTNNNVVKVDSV

Turning to `CNC(=O)c1cc2ccc(OC)cc2n1CCNC(C)=O` [Example 1, 1-[2-(Acetylamino)ethyl]-6-methoxy-N-methyl-1H-indole-2-carboxamide], the Ki worked out at 18 nM at MT1 receptor and 1 nM at MT2 receptor.
